Reference: patent publication US9580390B2, “Indazole compounds as kinase inhibitors and method of treating cancer with same” (University Health Network, priority 2011, dated 2017)
pIC50: −log10 of the molar value.

Tests used:
human TTK = molecular target: T1, human TTK (Homo sapiens, UniProt P33981); assay: TTK inhibition assay (indirect ELISA); type: biochemical; conditions: read-out: TTK IC50 Range
T1 construct: amino terminal GST fusion of full length human TTK; purchased Invitrogen
T1 sequence (P33981 1-857): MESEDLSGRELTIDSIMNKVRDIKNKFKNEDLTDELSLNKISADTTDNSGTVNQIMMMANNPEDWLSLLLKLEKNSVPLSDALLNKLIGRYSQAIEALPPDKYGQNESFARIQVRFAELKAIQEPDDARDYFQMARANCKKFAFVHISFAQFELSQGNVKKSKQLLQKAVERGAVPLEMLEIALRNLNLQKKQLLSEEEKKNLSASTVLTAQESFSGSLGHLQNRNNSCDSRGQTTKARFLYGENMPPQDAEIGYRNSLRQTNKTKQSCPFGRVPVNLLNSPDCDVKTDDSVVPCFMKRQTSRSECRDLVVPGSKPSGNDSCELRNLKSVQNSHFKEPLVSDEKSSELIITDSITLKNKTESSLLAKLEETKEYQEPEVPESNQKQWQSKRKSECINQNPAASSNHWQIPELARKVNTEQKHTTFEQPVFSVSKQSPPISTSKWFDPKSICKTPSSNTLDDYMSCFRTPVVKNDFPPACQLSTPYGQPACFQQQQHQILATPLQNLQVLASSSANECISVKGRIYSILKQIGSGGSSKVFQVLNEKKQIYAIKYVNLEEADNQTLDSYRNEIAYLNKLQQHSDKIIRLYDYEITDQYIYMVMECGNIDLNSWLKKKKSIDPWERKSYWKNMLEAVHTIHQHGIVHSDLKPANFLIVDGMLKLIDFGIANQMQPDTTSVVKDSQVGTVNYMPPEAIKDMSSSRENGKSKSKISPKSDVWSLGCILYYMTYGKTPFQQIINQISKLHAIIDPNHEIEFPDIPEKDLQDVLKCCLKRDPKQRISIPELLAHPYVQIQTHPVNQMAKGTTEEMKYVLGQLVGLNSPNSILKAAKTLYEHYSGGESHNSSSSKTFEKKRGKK

Breast cancer cells = assay: Cancer cell line growth inhibition (SRB assay); type: cell-based; conditions: Homo sapiens; MDA-MB-468; read-out: Cancer Cell Line GI50 Range MDA-MB-468
[1] = test system: colon cancer cells (HCT116); assay: Cancer cell line growth inhibition (SRB assay); type: cell-based; conditions: Homo sapiens, HCT-116; read-out: Cancer Cell Line GI50 Range HCT116
[2] = test system: ovarian cancer cells (PA-1); assay: Cancer cell line growth inhibition (SRB assay); type: cell-based; conditions: Homo sapiens, PA-1; read-out: Cancer Cell Line GI50 Range PA-1
TICs (Colon 12) = assay: Colon tumor-initiating cell growth inhibition (Alamar Blue); type: cell-based; conditions: 216 h; Colon 12 TICs, 9 days; read-out: Tumor Initiating Cell GI50 Range Colon 12
From the text: Materials and Methods: Non-tissue or tissue cultured treated T-75 flask and 96-well plates were purchased from VWR. Vitamin B-27 supplement, MEM NEAA (minimum essential medium non essential amino acids), sodium pyruvate, L-glutamine, N2 supplement, penicillin-streptomycin and fungizone/amphotericin B were obtained from Invitrogen. Lipid mixture, heparin and EGF were purchased from Sigma; bFGF from BD Biosciences. Tumor Initiating Cells (TICs) from colon were routinely maintained using non-tissue cultured treated T-75 flasks in DMEM:F12 medium containing 0.2×B-27 supplement, 4 ug/ml heparin, 1×MEM NEAA, 1× sodium pyruvate, 1 mM glutamine, 10 pg/ul bFGF, 20 pg/ul EGF, 1×N2 supplement, lipid mixture, penicillin-streptomycin and fungizone/amphotericin B. Ovarian TICs were routinely maintained using tissue cultured treated T-75 flasks in DMEM:F12 medium containing 1×B-27 supplement, 4 ug/ml heparin, 20 pg/ul bFGF, 20 pg/ul EGF and penicillin-streptomycin.
Assay Protocol: Compounds described herein were dissolved in DMSO and further diluted in cell culture medium for GI50 determination. Colon TICs were trypsinized and seeded into non-tissue cultured treated 96-well plates with 4,000 cells/well. After 24 h, compound was added into the cell culture at different concentrations, and the final concentration of DMSO was adjusted to 0.1%. Cells were then cultured at 37° C. for 9 days. Ovarian TICs were trypsinized and seeded into tissue cultured treated 96-well plates with 1,000 cells/well. After 24 h, compound was added into the cell culture at different concentrations, and the final concentration of DMSO was adjusted to 0.1%. Cells were then cultured at 37° C. for 6 days. Cell viability was assessed by Alamar Blue assay: 10 ul of Alamar Blue was added into each well. After 4 hours incubation at 37° C., fluorescence was recorded at excitation 544 and emission 590. GI50 (Growth inhibition) was calculated using GraphPad Prism 4.0 software.

TICs (Ovarian 2393A) = assay: Ovarian tumor-initiating cell growth inhibition (Alamar Blue); type: cell-based; conditions: 144 h; Ovarian 2393A TICs, 6 days; read-out: Tumor Initiating Cell GI50 Range Ovarain 2393A

| SMILES | pIC50 (human TTK) | GI50 (Breast cancer cells) [nM] | GI50 [1] [nM] | GI50 [2] [nM] | GI50 (TICs (Colon 12)) [nM] | GI50 (TICs (Ovarian 2393A)) [nM] |
| --- | --- | --- | --- | --- | --- | --- |
| O=C(NC(c1ccccc1)C1CC1)c1ccc2[nH]nc(-c3ccc(O[C@H]4C[C@H]5CC[C@@H](C4)N5C4COC4)cc3)c2c1 (stereo partly drawn) [Example A321, N-(cyclopropyl(phenyl)methyl)-3-(4-(((1R,3R,5S)-8-(oxetan-3-yl)-8-azabicyclo[3.2.1]octan-3-yl)oxy)phenyl)-1H-indazole-5-carboxamide] | > 7.00 | 100 to 500 | 100 to 500 | 100 to 500 | < 100 | 100 to 500 |
| CC(C)C(NC(=O)c1ccc2[nH]nc(-c3ccc(O[C@H]4C[C@H]5CC[C@@H](C4)N5C4COC4)cc3)c2c1)c1ccccn1 (stereo partly drawn) [Example A325, N-(2-methyl-1-(pyridin-2-yl)propyl)-3-(4-(((1R,3R,5S)-8-(oxetan-3-yl)-8-azabicyclo[3.2.1]octan-3-yl)oxy)phenyl)-1H-indazole-5-carboxamide] | > 7.00 | 100 to 500 | 100 to 500 | 100 to 500 | < 100 | 100 to 500 |
| O=C(NC(c1ccsc1)C1CCC1)c1ccc2[nH]nc(-c3ccc(O[C@H]4C[C@H]5CC[C@@H](C4)N5C4COC4)cc3)c2c1 (stereo partly drawn) [Example A326, N-(cyclobutyl(thiophen-3-yl)methyl)-3-(4-(((1R,3R,5S)-8-(oxetan-3-yl)-8-azabicyclo[3.2.1]octan-3-yl)oxy)phenyl)-1H-indazole-5-carboxamide] | > 7.00 | 100 to 500 | 100 to 500 | 100 to 500 | < 100 | < 100 |
| CC(C)CC(NC(=O)c1ccc2[nH]nc(-c3ccc(O[C@H]4C[C@H]5CC[C@@H](C4)N5C=O)cc3)c2c1)c1ccccn1 (stereo partly drawn) [Example A339] | > 7.00 | < 100 | < 100 | < 100 | < 100 | < 100 |
| CCC[C@H](NC(=O)c1ccc2[nH]nc(-c3ccc(OC4CC5CCC(C4)N5C=O)cc3)c2c1)c1ccccc1 (stereo partly drawn) [Example A343, 3-(4-(((1R,3R,5S)-8-formyl-8-azabicyclo[3.2.1]octan-3-yl)oxy)phenyl)-N-((S)-1-phenylbutyl)-1H-indazole-5-carboxamide] | > 7.00 | 100 to 500 | < 100 | < 100 | < 100 | 100 to 500 |
| CC(C)[C@H](NC(=O)c1ccc2[nH]nc(-c3ccc(N4C5CCC4CC(O)C5)cc3)c2c1)c1ccccc1Cl (stereo partly drawn) [Example A356, N-((S)-1-(2-chlorophenyl)-2-methylpropyl)-3-(4-((1R,3S,5S)-3-hydroxy-8-azabicyclo[3.2.1]octan-8-yl)phenyl)-1H-indazole-5-carboxamide] | > 7.00 | < 100 | < 100 | < 100 | < 100 | < 100 |
| O=C(N[C@H](c1ccccn1)C1CCCC1)c1ccc2[nH]nc(-c3ccc(N4C5CCC4CC(O)C5)cc3)c2c1 (stereo partly drawn) [Example A360, N-((S)-cyclopentyl(pyridin-2-yl)methyl)-3-(4-((1R,3S,5S)-3-hydroxy-8-azabicyclo[3.2.1]octan-8-yl)phenyl)-1H-indazole-5-carboxamide] | > 7.00 | < 100 | < 100 | < 100 | < 100 | < 100 |
| O=C(N[C@H](c1ccccc1)C1CC1)c1ccc2[nH]nc(-c3ccc(N4C5CCC4CC(O)C5)cc3)c2c1 (stereo partly drawn) [Example A362, N-((S)-cyclopropyl(phenyl)methyl)-3-(4-((1R,3S,5S)-3-hydroxy-8-azabicyclo[3.2.1]octan-8-yl)phenyl)-1H-indazole-5-carboxamide] | > 7.00 | < 100 | < 100 | < 100 | < 100 | < 100 |
| CC(C)C[C@H](NC(=O)c1ccc2[nH]nc(-c3ccc(N4C5CCC4CC(O)C5)cc3)c2c1)c1ccccc1 (stereo partly drawn) [Example A368, 3-(4-((1R,3S,5S)-3-hydroxy-8-azabicyclo[3.2.1]octan-8-yl)phenyl)-N-((S)-3-methyl-1-phenylbutyl)-1H-indazole-5-carboxamide] | > 7.00 | 100 to 500 | < 100 | < 100 | < 100 | 100 to 500 |
| O=C(N[C@H](c1ccccn1)C1CCCC1)c1ccc2[nH]nc(-c3ccc(N4CCCN(C5COC5)CC4)cc3)c2c1 [Example A370, (S)-N-(cyclopentyl(pyridin-2-yl)methyl)-3-(4-(4-(oxetan-3-yl)-1,4-diazepan-1-yl)phenyl)-1H-indazole-5-carboxamide] | > 7.00 | < 100 | < 100 | < 100 | < 100 | 100 to 500 |
| CN1C2CCC1CC(Oc1ccc(-c3n[nH]c4ccc(C(=O)N[C@H](c5ccccc5)C5CC5)cc34)cc1)C2 (stereo partly drawn) [Example A376, N-((S)-cyclopropyl(phenyl)methyl)-3-(4-(((1R,3R,5S)-8-methyl-8-azabicyclo[3.2.1]octan-3-yl)oxy)phenyl)-1H-indazole-5-carboxamide] | > 7.00 | 100 to 500 | < 100 | < 100 | 100 to 500 | 100 to 500 |
| CN1C2CCC1CC(Oc1ccc(-c3n[nH]c4ccc(C(=O)N[C@@H](c5ccccc5)C5CC5)cc34)cc1)C2 (stereo partly drawn) [Example A378, N-((R)-cyclopropyl(phenyl)methyl)-3-(4-(((1R,3R,5S)-8-methyl-8-azabicyclo[3.2.1]octan-3-yl)oxy)phenyl)-1H-indazole-5-carboxamide] | > 7.00 | 100 to 500 | < 100 | < 100 | 100 to 500 | 100 to 500 |
| CN1CCC(Oc2ccc(-c3n[nH]c4ccc(C(=O)N[C@@H](c5ccccn5)C5CC5)cc34)cc2Cl)CC1 [Example A386, (R)-3-(3-chloro-4-((1-methylpiperidin-4-yl)oxy)phenyl)-N-(cyclopropyl(pyridin-2-yl)methyl)-1H-indazole-5-carboxamide] | > 7.00 | > 500 | 100 to 500 | 100 to 500 | 100 to 500 | > 500 |
| CN1[C@@H]2CCC[C@H]1C[C@@H](Oc1ccc(-c3n[nH]c4ccc(C(=O)NC(c5ccccn5)C5CCCC5)cc34)cc1)C2 (stereo partly drawn) [Example A391, N-(cyclopentyl(pyridin-2-yl)methyl)-3-(4-(((1R,3R,5S)-9-methyl-9-azabicyclo[3.3.1]nonan-3-yl)oxy)phenyl)-1H-indazole-5-carboxamide] | > 7.00 | 100 to 500 | < 100 | < 100 | < 100 | 100 to 500 |
| CC(C)C(NC(=O)c1ccc2[nH]nc(-c3ccc(O[C@H]4C[C@H]5CCC[C@@H](C4)N5C)cc3)c2c1)c1ccccc1Cl (stereo partly drawn) [Example A394, N-(1-(2-chlorophenyl)-2-methylpropyl)-3-(4-(((lR,3R,5S)-9-methyl-9-azabicyclo[3.3.1]nonan-3-yl)oxy)phenyl)-1H-indazole-5-carboxamide] | > 7.00 | 100 to 500 | < 100 | 100 to 500 | 100 to 500 | 100 to 500 |
| CC(C)C(NC(=O)c1ccc2[nH]nc(-c3ccc(OC4CC5CCC(C4)N5C)cc3)c2c1)c1ccccn1 (stereo not drawn) [Example A395, N-(2-methyl-1-(pyridin-2-yl)propyl)-3-(4-((8-methyl-8-azabicyclo [3.2.1]octan-3-yl)oxy)phenyl)-1H-indazole-5-carboxamide] | > 7.00 | < 100 | < 100 | < 100 | < 100 | 100 to 500 |
| O=C(N[C@@H](c1ccccn1)C1CCCC1)c1ccc2[nH]nc(-c3ccc(N4CCN(C5COC5)CC4)cc3)c2c1 [Example A411, (R)-N-(cyclopentyl(pyridin-2-yl)methyl)-3-(4-(4-(oxetan-3-yl)piperazin-1-yl)phenyl)-1H-indazole-5-carboxamide] | > 7.00 | < 100 | < 100 | < 100 | < 100 | < 100 |
